Experimental data taken from PubChem BioAssay AID1963852 (Molecular Pharmacology Branch, DTP, NCI, 2024).
“And” between values parts separate entries of the source, which are not always exact repeats. Identical values can stand only once.

Test system: 282377-053-R-J1-PDC complex spheroid viability
Experiment: Anticancer human tumor 282377-053-R-J1-PDC patient-derived colon adenocarcinoma cell line growth inhibition [POLQ]
Conditions: for viability, T/C: stronger effect = lower value
Protocol: Multicellular complex tumor spheroid response to Polymerase (POL) inhibitors (novobiocin, ART-558, RP6685) in combination with a variety of drugs and investigational agents in selected tumor cell lines
The POL inhibitors (novobiocin, ART-558, and RP6685) were evaluated both individually and in combination with standard of care and investigational anticancer small molecules within a complex spheroid model of solid tumors. . Complex spheroids include a stromal component modeled by human endothelial cells (HUVEC) and fibroblasts modeled by human mesenchymal stem cells (MSCs). The concentration ranges selected for each drug and investigational agent were based upon clinically achievable concentrations if the clinical Cmax of the agent was known.
Compounds. The drugs and investigational agents: novobiocin (NSC847541), ART-558 (NSC835418), RP-6685 (NSC848927), peposertib (NSC802822), ceralasertib (NSC780249), elimusertib (NSC800525), camonsertib (NSC841442), AZD-1390 (NSC803789), olaparib (NSC753686), talazoparib (NSC767125), rucaparib (NSC756644), sotorasib (NSC818433), MRTX-1133 (NSC836407), SN-38 (NSC673596), topotecan (NSC609699), epotoside (NSC141540), doxorubicin (NSC123127), gemcitabine (NSC613327), 5-fluorouracil (NSC19893), paclitaxel (NSC125973), vemurafenib (NSC761431), MSA-2 (NSC828583), SN-011 (NSC837082), adavosertib (NSC754352), prexasertib (NSC758257), carboplatin (NSC241240) and oxaliplatin (NSC266046), were obtained from the National Cancer Institute (NCI) Developmental Therapeutics Program Chemical Repository (21). The FDA-approved anticancer drug set is available from the Developmental Therapeutics Program at https://dtp.cancer.gov/organization/dscb/obtaining/. […] The stock solutions were prepared in dimethyl sulfoxide (DMSO, Sigma-Aldrich, St. Louis, MO, cat. D2650), except for the platinum compounds which were prepared in saline (Quality Biological, Gaithersburg, MD, cat. 114-055-101), at 800-fold the tested concentration and stored at -70 degrees C prior to their use. All drugs and investigational agents were tested over a range starting from a high concentration at or near the clinical Cmax and decreasing in half-log increments. If the clinical Cmax for an agent had not been determined, the highest concentration tested was 10 microM, except for SN-38, which was tested at a high concentration of 1 microM.
Cell Culture. All cells were maintained in an incubator at 37 degrees C and 5% CO2 with 95% humidity. The PDC lines were cultured according to standard operating procedures established by the NCI PDMR (https://pdmr.cancer.gov). Table 3 of the manuscript, lists the cell lines along with the number of the three cell types plated to form the mct-spheroids and media for tumor cell growth. After thawing, all PDC lines, except 997537-175-T-J1-PDC and 415267-285-R-J2-PDC, were cultured in Matrigel-coated flasks prepared with a working solution of 1X Ham's F-12 nutrient mix, without supplementation (Thermo Fisher Scientific, cat. 11765054), 100 U/mL penicillin-streptomycin (Thermo Fisher Scientific, cat. 15140122), and 2.5% Matrigel (Corning Inc., Corning, NY, cat. 354248) for the first three passages. The two PDC lines 997537-175-T-J1-PDC and 415267-285-R-J2-PDC were cultured on uncoated flasks. The 857933-349-R-J2-PDC line was cultured in 6C/Colon 1B media containing advanced DMEM/F-12 (Thermo Fisher Scientific, cat. 12634028), 10 mM HEPES (Thermo Fisher Scientific, cat. 15630080), 1X GlutaMAX supplement (Thermo Fisher Scientific, cat. 35050061), 0.1 mg/mL primocin (InvivoGen, San Diego, CA, cat. ant-pm-2), 10% defined fetal bovine serum, heat inactivated (HyClone Laboratories Inc., Logan, UT, cat. SH30070.03HI), 50% L-WRN conditioned media (ATCC, cat. CRL-3276), 1.25 mM N-Acetyl-L-cysteine (Sigma-Aldrich, cat. A9165), 10 mM nicotinamide (Sigma-Aldrich, cat. N0636), 1X B-27 supplement (Thermo Fisher Scientific, cat. 17504044), 1X N-2 supplement (Thermo Fisher Scientific, cat. […]

[1] = curve of first compound, second compound 0.0316 µM
[2] = curve of first compound, second compound 0.1 µM
[3] = curve of first compound, second compound 0.316 µM
[4] = curve of first compound, second compound 1 µM
[5] = curve of first compound, second compound 3.16 µM
[6] = curve of first compound, second compound 10 µM
[7] = second compound 0.0316 µM, first compound 0.0316 µM
[8] = second compound 0.0316 µM, first compound 0.1 µM
[9] = second compound 0.0316 µM, first compound 0.316 µM
[10] = second compound 0.0316 µM, first compound 1 µM
[11] = second compound 0.0316 µM, first compound 3.16 µM
[12] = second compound 0.0316 µM, first compound 10 µM
[13] = second compound 0.1 µM, first compound 0.0316 µM
[14] = second compound 0.1 µM, first compound 0.1 µM
[15] = second compound 0.1 µM, first compound 0.316 µM
[16] = second compound 0.1 µM, first compound 1 µM
[17] = second compound 0.1 µM, first compound 3.16 µM
[18] = second compound 0.1 µM, first compound 10 µM
[19] = second compound 0.316 µM, first compound 0.0316 µM
[20] = second compound 0.316 µM, first compound 0.1 µM
[21] = second compound 0.316 µM, first compound 0.316 µM
[22] = second compound 0.316 µM, first compound 1 µM
[23] = second compound 0.316 µM, first compound 3.16 µM
[24] = second compound 0.316 µM, first compound 10 µM
[25] = second compound 1 µM, first compound 0.0316 µM
[26] = second compound 1 µM, first compound 0.1 µM
[27] = second compound 1 µM, first compound 0.316 µM
[28] = second compound 1 µM, first compound 1 µM
[29] = second compound 1 µM, first compound 3.16 µM
[30] = second compound 1 µM, first compound 10 µM
[31] = second compound 3.16 µM, first compound 0.0316 µM
[32] = second compound 3.16 µM, first compound 0.1 µM
[33] = second compound 3.16 µM, first compound 0.316 µM
[34] = second compound 3.16 µM, first compound 1 µM
[35] = second compound 3.16 µM, first compound 3.16 µM
[36] = second compound 3.16 µM, first compound 10 µM
[37] = second compound 10 µM, first compound 0.0316 µM
[38] = second compound 10 µM, first compound 0.1 µM
[39] = second compound 10 µM, first compound 0.316 µM
[40] = second compound 10 µM, first compound 1 µM
[41] = second compound 10 µM, first compound 3.16 µM
[42] = second compound 10 µM, first compound 10 µM
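Note: spheroids exposed to compounds for seven days.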
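Throughout, for viability, T/C: 100% = DMSO vehicle control viability.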

Compound: C#Cc1c(F)ccc2cc(O)cc(-c3ncc4c(N5CC6CCC(C5)N6)nc(OCC56CCCN5CC(F)C6)nc4c3F)c12 (stereo unspecified) + Cc1cccc(N(C)C(=O)C2C(O)CCN2c2nc(C)cc(C(F)(F)F)c2C#N)c1
- IC50 [1]: > 10 µM
- IC50 [2]: > 10 µM
- IC50 [3]: > 10 µM
- IC50 [4]: > 10 µM
- IC50 [5]: > 10 µM
- IC50 [6]: > 10 µM
- viability, T/C [7]: 105%
- viability, T/C [8]: 84%
- viability, T/C [9]: 77.4%
- viability, T/C [10]: 89.2%
- viability, T/C [11]: 68.6%
- viability, T/C [12]: 86.9%
- viability, T/C [13]: 84.1%
- viability, T/C [14]: 82.4%
- viability, T/C [15]: 112%
- viability, T/C [16]: 84.8%
- viability, T/C [17]: 106%
- viability, T/C [18]: 81%
- viability, T/C [19]: 91.9%
- viability, T/C [20]: 79.2%
- viability, T/C [21]: 105%
- viability, T/C [22]: 93.6%
- viability, T/C [23]: 85.2%
- viability, T/C [24]: 66.2%
- viability, T/C [25]: 104%
- viability, T/C [26]: 80.4%
- viability, T/C [27]: 86%
- viability, T/C [28]: 81.3%
- viability, T/C [29]: 86.9%
- viability, T/C [30]: 70.4%
- viability, T/C [31]: 91.9%
- viability, T/C [32]: 97.6%
- viability, T/C [33]: 73.3%
- viability, T/C [34]: 75%
- viability, T/C [35]: 77.9%
- viability, T/C [36]: 74.3%
- viability, T/C [37]: 81.7%
- viability, T/C [38]: 82.4%
- viability, T/C [39]: 82.3%
- viability, T/C [40]: 68.5%
- viability, T/C [41]: 70.6%
- viability, T/C [42]: 81%

Compound: CNCc1ccc(-c2[nH]c3cc(F)cc4c3c2CCNC4=O)cc1
- viability, T/C (compound 0.0316 µM): 94% and 107% and 86.8%
- viability, T/C (compound 0.1 µM): 89.3% and 94.2% and 86.3%
- viability, T/C (compound 0.316 µM): 113% and 102% and 114%
- viability, T/C (compound 1 µM): 117% and 101% and 95.7%
- viability, T/C (compound 3.16 µM): 128% and 105% and 116%
- viability, T/C (compound 10 µM): 125% and 115% and 151%
- IC50 (curve of compound): > 10 µM

Compound: O=C(c1cc(Cc2n[nH]c(=O)c3ccccc23)ccc1F)N1CCN(C(=O)C2CC2)CC1 + Cc1cccc(N(C)C(=O)C2C(O)CCN2c2nc(C)cc(C(F)(F)F)c2C#N)c1
- IC50 [1]: > 10 µM
- IC50 [2]: > 10 µM
- IC50 [3]: > 10 µM
- IC50 [4]: > 10 µM
- IC50 [5]: > 10 µM
- IC50 [6]: > 10 µM
- viability, T/C [7]: 104%
- viability, T/C [8]: 107%
- viability, T/C [9]: 109%
- viability, T/C [10]: 107%
- viability, T/C [11]: 106%
- viability, T/C [12]: 80.7%
- viability, T/C [13]: 110%
- viability, T/C [14]: 108%
- viability, T/C [15]: 112%
- viability, T/C [16]: 90.9%
- viability, T/C [17]: 116%
- viability, T/C [18]: 80.4%
- viability, T/C [19]: 83.3%
- viability, T/C [20]: 94%
- viability, T/C [21]: 101%
- viability, T/C [22]: 87.3%
- viability, T/C [23]: 94%
- viability, T/C [24]: 85.3%
- viability, T/C [25]: 100%
- viability, T/C [26]: 92.2%
- viability, T/C [27]: 108%
- viability, T/C [28]: 111%
- viability, T/C [29]: 107%
- viability, T/C [30]: 95.3%
- viability, T/C [31]: 92.2%
- viability, T/C [32]: 117%
- viability, T/C [33]: 104%
- viability, T/C [34]: 88.6%
- viability, T/C [35]: 101%
- viability, T/C [36]: 101%
- viability, T/C [37]: 84.6%
- viability, T/C [38]: 110%
- viability, T/C [39]: 90.4%
- viability, T/C [40]: 110%
- viability, T/C [41]: 87%
- viability, T/C [42]: 107%
